From patent publication US20250333419A1, “BICYCLIC COMPOUNDS AS INHIBITORS OF WRN” (Incyte Corporation, priority 2023, published 2025)

Tests used:
WRN [1] = target: T1, WRN (Homo sapiens, UniProt Q14191); assay: WRN ATPase activity assay (ADP-Glo); format: biochemical; conditions: IC50, 1-hr pre-incubation with enzyme; geometric means of at least 2 independent replicates
T1 construct: A His-tagged construct of WRN (AA S2-S1235) was produced and used for the ATPase assay; His; made in house; host or cells: Sf9 insect cells (baculovirus)
T1 sequence (Q14191 2-1235): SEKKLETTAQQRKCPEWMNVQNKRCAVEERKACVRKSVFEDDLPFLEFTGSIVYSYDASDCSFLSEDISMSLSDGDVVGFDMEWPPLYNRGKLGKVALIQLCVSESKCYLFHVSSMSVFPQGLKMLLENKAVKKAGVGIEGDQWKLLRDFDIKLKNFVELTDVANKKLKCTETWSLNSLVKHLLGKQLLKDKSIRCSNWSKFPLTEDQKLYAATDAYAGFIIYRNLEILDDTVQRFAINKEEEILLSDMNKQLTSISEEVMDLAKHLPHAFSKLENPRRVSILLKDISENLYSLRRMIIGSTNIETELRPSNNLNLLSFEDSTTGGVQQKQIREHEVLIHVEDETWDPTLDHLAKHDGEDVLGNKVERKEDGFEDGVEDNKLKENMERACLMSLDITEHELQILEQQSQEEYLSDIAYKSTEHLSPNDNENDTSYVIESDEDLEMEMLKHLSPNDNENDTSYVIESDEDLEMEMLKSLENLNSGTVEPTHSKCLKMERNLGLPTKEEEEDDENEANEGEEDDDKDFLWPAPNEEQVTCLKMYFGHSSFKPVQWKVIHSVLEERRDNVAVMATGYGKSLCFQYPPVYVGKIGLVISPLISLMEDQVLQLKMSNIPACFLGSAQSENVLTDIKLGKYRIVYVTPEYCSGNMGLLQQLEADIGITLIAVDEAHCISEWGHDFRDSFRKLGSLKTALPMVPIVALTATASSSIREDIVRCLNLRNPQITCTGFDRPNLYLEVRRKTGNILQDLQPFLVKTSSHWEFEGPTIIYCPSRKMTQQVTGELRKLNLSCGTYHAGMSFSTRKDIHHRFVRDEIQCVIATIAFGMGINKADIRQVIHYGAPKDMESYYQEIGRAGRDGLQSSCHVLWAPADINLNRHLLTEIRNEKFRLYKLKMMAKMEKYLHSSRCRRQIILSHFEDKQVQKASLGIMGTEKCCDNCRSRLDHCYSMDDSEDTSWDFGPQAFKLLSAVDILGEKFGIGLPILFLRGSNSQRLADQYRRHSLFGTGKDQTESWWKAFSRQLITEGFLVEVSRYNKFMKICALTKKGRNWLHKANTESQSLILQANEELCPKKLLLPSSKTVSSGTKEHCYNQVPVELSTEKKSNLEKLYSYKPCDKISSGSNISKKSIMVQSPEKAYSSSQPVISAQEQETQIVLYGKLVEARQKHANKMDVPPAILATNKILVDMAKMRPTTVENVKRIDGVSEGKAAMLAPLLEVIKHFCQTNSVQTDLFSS
Method: Compounds of the Examples were tested for WRN ATPase activity. WRN ATPase activity catalyzes ATP hydrolysis to produce ADP and phosphate. DNA encoding the target protein, 6×HIS-TEV-WRN-517-945, was produced, cloned and transfected as detailed in Example D. The amount of ADP produced was measured using ADP-Glo™ Kinase Assay kit from Promega Corporation in a Greiner white regular volume 384 wells assay plate (Greiner #781075). Data was normalized to a standard curve generated using various ADP concentrations and the corresponding luminescent signal intensities at each concentration. The assay conditions were optimized for enzyme concentration (WRN), substrate concentrations (ATP & dsDNA), and the linearity of the ATPase reaction, in the following assay buffer: 50 mM Tris-HCl, pH-7.5, 2 mM MgCl2, 50 mM NaCl, 1 mM EGTA, 0.01% P-20, 0.05% BSA, and 2 mM DTT prepared with nuclease free water.
A serial dilution (1:3 scheme) of the compounds were prepared in neat DMSO, with 100 nL of the compounds dispensed in the 384 wells assay plate. An 1-hr pre-incubation of the compounds with enzyme was included. A His-tagged construct of WRN (AA S2-S1235) was produced and used for the ATPase assay. Maximum inhibition control wells were set up with the addition of only assay buffer, and no inhibition control wells were set up with neat DMSO without test compounds. The reaction was initiated by addition of 5 μL substrate mix (200 μM ultrapure ATP, and 50 nM dsDNA prepared in assay buffer) and incubated at 25° C. for 35 min. A forked dsDNA oligomer substrate was prepared by annealing equal amounts of oligo GPat-1 ([BHQ2][…]) and oligo GPat-2 ([…][TAM]) and was used as dsDNA substrate for WRN ATPase assay. A typical ATPase reaction consists of 25 nM forked dsDNA, 100 μM ATP, and 1 nM WRN prepared in assay buffer. The WRN ATPase reaction was stopped by the addition of 5 μL of ADP-Glo Reagent from ADP-Glo™ Kinase Assay kit and incubated for 40 min to deplete the unreacted ATP. Afterwards, 5 μL of Kinase Detection Reagent from the ADP-Glo™ Kinase Assay kit was added and incubated for 1 hr for the development of luminescence signal.
Luminesce signals were measured on BMG PHERAstar FSX using luminescence protocol. Data analysis was carried out using Genedata software following % of control normalization. Fitting parameters include dose response IC50, Hill slope (n), maximum inhibition (S∞), and minimum inhibition (S0). The reported IC50 values for compounds in this invention are the geometric means of at least 2 independent replicates.

WRN [2] = target: T1, WRN; assay: WRN Helicase activity assay (fluorescence DNA unwinding); format: biochemical; conditions: IC50, 1-hr pre-incubation with enzyme; geometric means of at least 2 independent replicates
Method: Compounds of the examples were tested for WRN helicase activity. DNA encoding the target protein, 6×HIS-TEV-WRN-517-945, was produced, cloned and transfected as detailed in Example D. To determine the inhibitory properties of the compounds, a 384 wells plate-based Helicase assay was set up to measure the extent of DNA unwinding (Helicase) activity of WRN. The WRN Helicase assay was designed to measure increase in fluorescence signal using a fluorescence based, donor-quencher paired forked dsDNA oligomer substrate (custom synthesis from Sigma-Aldrich) prepared by annealing equal amounts of oligo GPat-1 ([BHQ2][…]) and oligo GPat-2 ([…][TAM]). Continuous measurement of fluorescent signal was used to optimize the buffer conditions, concentration of enzyme (WRN), concentration of substrates (ATP & dsDNA), and the linearity of the Helicase reaction. All solutions were prepared in the following assay buffer: 50 mM Tris-HCl, pH-7.5, 2 mM MgCl2, 50 mM NaCl, 1 mM EGTA, 0.01% P-20, 0.05% BSA, and 2 mM DTT prepared with nuclease free water.
A serial dilution (1:3 scheme) of the compounds was prepared in neat DMSO and 100 nL of the compounds was dispensed in the Greiner black low volume (Greiner #784076) 384 wells assay plate. An 1-hr pre-incubation of the compounds with enzyme was included. A His-tagged construct of WRN (AA S2-S1235) was produced and used for the ATPase assay. Maximum inhibition control wells were set up with the addition of only assay buffer, and no inhibition control wells were set up with neat DMSO without test compounds. The reaction was initiated by addition of 5 μL substrate mix (200 μM ultrapure ATP, and 50 nM dsDNA prepared in assay buffer) and incubated at 25° C. for 35 min. A typical Helicase reaction consists of 25 nM forked dsDNA, 100 μM ATP, and 1 nM WRN prepared in assay buffer. The WRN Helicase reaction was quenched by the addition of 5 μL ‘STOP’ solution containing 100 mM EDTA (final EDTA concentration 33.33 mM) prepared in assay buffer. The plates were read on BMG PHERAstar FSX using 540/590 module to measure an increase of fluorescence. Data analysis was carried out using the Genedata software following % of control normalization. Fitting parameters include dose response IC50, Hill slope (n), maximum inhibition (S∞), and minimum inhibition (S0). The reported IC50 values for compounds in this invention are the geometric means of at least 2 independent replicates.

Row | SMILES | IC50 (WRN [1]) [nM] | IC50 (WRN [2]) [nM]
1 | C=CC(=O)Nc1ccccc1-c1c(CC)n(CC(=O)Nc2ccc(C(F)(F)F)cc2Cl)c2nc(C3=CCOCC3)nn2c1=O [Example 16, N-(2-(4-(2-((2-Chloro-4-(trifluoromethyl)phenyl)amino)-2-oxoethyl)-2-(3,6-dihydro-2H-pyran-4-yl)-5-ethyl-7-oxo-4,7-dihydro-[1,2,4]triazolo[1,5-a]pyrimidin-6-yl)phenyl)acrylamide] | < 100 | < 100
2 | C=CC(=O)Nc1ccccc1-c1c(CC)n(CC(=O)Nc2ccc(C(F)(F)F)cc2)c2nc(C3CC3)nn2c1=O [Example 17, N-(2-(2-Cyclopropyl-5-ethyl-7-oxo-4-(2-oxo-2-((4-(trifluoromethyl)phenyl)amino)ethyl)-4,7-dihydro-[1,2,4]triazolo[1,5-a]pyrimidin-6-yl)phenyl)acrylamide] | < 100 | < 100
3 | C=CC(=O)Nc1ccccc1-c1c(CC)n(CC(=O)Nc2ccc(C(F)(F)F)cc2)c2nc(C)nn2c1=O [Example 18, N-(2-(5-Ethyl-2-methyl-7-oxo-4-(2-oxo-2-((4-(trifluoromethyl)phenyl)amino)ethyl)-4,7-dihydro-[1,2,4]triazolo[1,5-a]pyrimidin-6-yl)phenyl)acrylamide] | 500 to 1000 | 500 to 1000
4 | C=CC(=O)Nc1ccccc1-c1c(CC)n(CC(=O)Nc2ccc(C(F)(F)F)cc2)c2nc(C3CCC3)nn2c1=O [Example 19, N-(2-(2-Cyclobutyl-5-ethyl-7-oxo-4-(2-oxo-2-((4-(trifluoromethyl)phenyl)amino)ethyl)-4,7-dihydro-[1,2,4]triazolo[1,5-a]pyrimidin-6-yl)phenyl)acrylamide] | 100 to 500 | 100 to 500
5 | C=CC(=O)Nc1ccccc1-c1c(CC)n(CC(=O)Nc2ccc(C(F)(F)F)cc2)c2nc(C3CCCCC3)nn2c1=O [Example 20, N-(2-(2-Cyclohexyl-5-ethyl-7-oxo-4-(2-oxo-2-((4-(trifluoromethyl)phenyl)amino)ethyl)-4,7-dihydro-[1,2,4]triazolo[1,5-a]pyrimidin-6-yl)phenyl)acrylamide] | 100 to 500 | 100 to 500
6 | C=CC(=O)Nc1ccccc1-c1c(CC)n(CC(=O)Nc2ccc(C(F)(F)F)cc2Cl)c2nc(C(C)C)nn2c1=O [Example 21, N-(2-(4-(2-((2-Chloro-4-(trifluoromethyl)phenyl)amino)-2-oxoethyl)-5-ethyl-2-isopropyl-7-oxo-4,7-dihydro-[1,2,4]triazolo[1,5-a]pyrimidin-6-yl)phenyl)acrylamide] | 100 to 500 | 100 to 500
7 | C=CC(=O)Nc1ccccc1-c1c(CC)n(CC(=O)Nc2ccc(C(F)(F)F)cc2)c2nc(-c3cccs3)nn2c1=O [Example 22, N-(2-(5-Ethyl-7-oxo-4-(2-oxo-2-((4-(trifluoromethyl)phenyl)amino)ethyl)-2-(thiophen-2-yl)-4,7-dihydro-[1,2,4]triazolo[1,5-a]pyrimidin-6-yl)phenyl)acrylamide] | < 100 | < 100
8 | C=CC(=O)Nc1ccccc1-c1c(CC)n(CC(=O)Nc2ccc(C(F)(F)F)cc2)c2nc(C3CCOCC3)nn2c1=O [Example 23, N-(2-(5-Ethyl-7-oxo-4-(2-oxo-2-((4-(trifluoromethyl)phenyl)amino)ethyl)-2-(tetrahydro-2H-pyran-4-yl)-4,7-dihydro-[1,2,4]triazolo[1,5-a]pyrimidin-6-yl)phenyl)acrylamide] | 100 to 500 | 500 to 1000
9 | C=CC(=O)Nc1ccccc1-c1c(CC)n(CC(=O)Nc2ccc(C(F)(F)F)cc2)c2nc(C3CCNCC3)nn2c1=O [Example 24, N-(2-(5-Ethyl-7-oxo-4-(2-oxo-2-((4-(trifluoromethyl)phenyl)amino)ethyl)-2-(piperidin-4-yl)-4,7-dihydro-[1,2,4]triazolo[1,5-a]pyrimidin-6-yl)phenyl)acrylamide] | 100 to 500 | 100 to 500
10 | C=CC(=O)Nc1ccccc1-c1c(CC)n(CC(=O)Nc2ccc(C(F)(F)F)cc2)c2nc(C3CCN(C(=O)C=C)CC3)nn2c1=O [Example 25, N-(2-(2-(1-Acryloylpiperidin-4-yl)-5-ethyl-7-oxo-4-(2-oxo-2-((4-(trifluoromethyl)phenyl)amino)ethyl)-4,7-dihydro-[1,2,4]triazolo[1,5-a]pyrimidin-6-yl)phenyl)acrylamide] | < 100 | < 100
